# Measured values as given in ChEMBL document CHEMBL4000174, “Synthesis and antitumor activity of novel substituted uracil-1'(N)-acetic acid ester derivatives of 20(S)-camptothecins” (Eur J Med Chem, 2017).
# Active and inactive are the calls of the source. The rule behind the calls is not given here.
# How the values were obtained:
# A549 [1] = assay: Antiproliferative activity against human A549 cells after 96 hrs by MTT assay; type: functional, cell-based; conditions: A549, 96 h
# Bel-7402 = assay: Antiproliferative activity against human Bel7402 cells after 96 hrs by MTT assay; type: functional, cell-based; conditions: Bel-7402, 96 h
# HCT-8 = assay: Antiproliferative activity against human HCT8 cells after 96 hrs by MTT assay; type: functional, cell-based; conditions: HCT-8, 96 h
# A2780 = assay: Antiproliferative activity against human A2780 cells after 96 hrs by MTT assay; type: functional, cell-based; conditions: A2780, 96 h
# H22 [2] = assay: Antitumor activity against mouse H22 cells implanted in Kunming mouse assessed as tumor growth inhibition at 40 mg/kg, ip administered on day 1 and day 5 relative to control relative to control; type: functional; conditions: read-out: TGI
# H22 [3] = assay: Antitumor activity against mouse H22 cells implanted in Kunming mouse assessed as tumor growth inhibition at 100 mg/kg, ip administered once relative to control; type: functional; conditions: read-out: TGI
# BGC-823 [4] = assay: Antitumor activity against human BGC823 cells xenografted in BALB/c nude mouse assessed as tumor growth inhibition at 60 mg/kg, ip administered once in a week for two weeks starting from 6 days post tumor transplantation measured 27 to 30 days post tumor transplantation relative to control; type: functional; conditions: BGC-823, ip, read-out: TGI
# BGC-823 [5] = assay: Antitumor activity against human BGC823 cells xenografted in BALB/c nude mouse assessed as tumor growth inhibition at 30 mg/kg, ip administered once in a week for two weeks starting from 6 days post tumor transplantation measured 27 to 30 days post tumor transplantation relative to control; type: functional; conditions: BGC-823, ip, read-out: TGI
# BGC-823 [6] = assay: Antitumor activity against human BGC823 cells xenografted in BALB/c nude mouse assessed as tumor volume at 30 mg/kg, ip administered once in a week for two weeks starting from 6 days post tumor transplantation measured 27 to 30 days post tumor transplantation relative to control; type: functional
# Escherichia coli = assay: Inhibition of Escherichia coli topoisomerase 1-mediated relaxation of supercoiled Pcmv-6 plasmid DNA at 30 to 50 uM after 30 mins by ethidium bromide staining based agarose gel electrophoretic analysis
# A549 [7] = assay: Induction of apoptosis in human A549 cells assessed as viable cells at 8 nM after 24 hrs by Annexin V-FITC/propidium iodide staining based flow cytometry (reference value: 89.41%); type: functional; conditions: A549, 24 h, read-out: Activity
# A549 [8] = assay: Cell cycle arrest in human A549 cells assessed as accumulation at G2/M phase at 8 nM after 24 hrs by propidium iodide staining based flow cytometry (reference value: 8.36%); type: functional
# A549 [9] = assay: Cell cycle arrest in human A549 cells assessed as accumulation at G0/G1 phase at 25 nM after 24 hrs by propidium iodide staining based flow cytometry (reference value: 58.84%); type: functional
# A549 [10] = assay: Cell cycle arrest in human A549 cells assessed as accumulation at S phase at 25 nM after 24 hrs by propidium iodide staining based flow cytometry (reference value: 32.80%); type: functional
# A549 [11] = assay: Cell cycle arrest in human A549 cells assessed as accumulation at S phase at 75 nM after 24 hrs by propidium iodide staining based flow cytometry (reference value: 32.80%); type: functional
# A549 [12] = assay: Induction of apoptosis in human A549 cells assessed as necrotic cells at 75 nM after 24 hrs by Annexin V-FITC/propidium iodide staining based flow cytometry (reference value: 7.62%); type: functional
# A549 [13] = assay: Induction of apoptosis in human A549 cells assessed as early apoptotic cells at 25 nM after 24 hrs by Annexin V-FITC/propidium iodide staining based flow cytometry (reference value: 0.50%); type: functional
# A549 [14] = assay: Induction of apoptosis in human A549 cells assessed as cell shrinkage after 24 hrs by phase contrast microscopy; type: functional, cell-based
# A549 [15] = assay: Induction of apoptosis in human A549 cells assessed as decrease in Bcl-2 protein level at 8 to 75 nM by Western blot method; type: functional, cell-based
# A549 [16] = assay: Induction of apoptosis in human A549 cells assessed as increase in Bax protein level at 8 to 75 nM by Western blot method; type: functional, cell-based
# Mus musculus [17] = assay: Toxicity in Kunming mouse implanted with mouse H22 cells assessed as survival at 60 mg/kg, ip administered twice; type: organism-based; conditions: in vivo
# Mus musculus [18] = assay: Toxicity in BALB/c nude mouse xenografted with human Bel7402 cells assessed as survival at 60 mg/kg, ip administered once in a week for two weeks starting from 6 days post tumor transplantation measured every 3 days for 21 days; type: organism-based; conditions: in vivo, 504 h
# Mus musculus [19] = assay: Toxicity in BALB/c nude mouse xenografted with human BGC823 cells assessed as mouse survival at 60 mg/kg, ip administered once in a week for two weeks starting from 6 days post tumor transplantation; type: organism-based; conditions: in vivo, 144 h
# Mus musculus [20] = assay: Toxicity in BALB/c nude mouse xenografted with human BGC823 cells assessed as mouse survival at 30 mg/kg, ip administered once in a week for two weeks starting from 6 days post tumor transplantation; type: organism-based; conditions: in vivo, 144 h
# Mus musculus [21] = assay: Antitumor activity in BALB/c nude mouse xenografted with human Bel7402 cells assessed as tumor volume at 60 mg/kg, ip administered once in a week for two weeks starting from 6 days post tumor transplantation measured every 3 days for 21 days (reference value: […]); conditions: in vivo, 504 h
# Mus musculus [22] = assay: Antitumor activity in BALB/c nude mouse xenografted with human Bel7402 cells assessed as tumor volume at 30 mg/kg, ip administered once in a week for two weeks starting from 6 days post tumor transplantation measured every 3 days for 21 days (reference value: 511 mm3); conditions: in vivo, 504 h
# Mus musculus [23] = assay: Toxicity in BALB/c nude mouse xenografted with human BGC823 cells assessed as tumor volume at 60 mg/kg, ip administered once in a week for two weeks starting from 6 days post tumor transplantation and measured every 3 days during compound dosing for 15 days (reference value: […]); conditions: in vivo, 360 h
# Mus musculus [24] = assay: Toxicity in BALB/c nude mouse xenografted with human BGC823 cells assessed as tumor volume at 30 mg/kg, ip administered once in a week for two weeks starting from 6 days post tumor transplantation and measured every 3 days during compound dosing for 15 days (reference value: […]); conditions: in vivo, 360 h
compound,measurement,setting,value
CCc1c2c(nc3ccccc13)-c1cc3c(c(=O)n1C2)COC(=O)[C@@]3(CC)OC(=O)Cn1cc(F)c(=O)[nH]c1=O,IC50,A549 [1],0.027 µM
same,IC50,Bel-7402,0.014 µM
same,IC50,HCT-8,0.007 µM
same,IC50,A2780,0.147 µM
same,inhibition in vivo at 40 mg/kg,H22 [2],57.5%
same,inhibition in vivo at 100 mg/kg,H22 [3],39.1%
same,inhibition in vivo at 60 mg/kg,BGC-823 [4],96%
same,inhibition in vivo at 30 mg/kg,BGC-823 [5],89.7%
same,T/C,BGC-823 [6],12.65%
same,inhibition,Escherichia coli,Active
same,viability at 0.008 µM,A549 [7],80.2%
same,Activity,A549 [8],31.21%
same,Activity,A549 [9],7.09%
same,Activity,A549 [10],21.17%
same,Activity,A549 [11],30.76%
same,Activity,A549 [12],10.77%
same,Activity,A549 [13],10.07%
same,Activity,A549 [14],Dose-dependent effect
same,Activity,A549 [15],Active
same,Activity,A549 [16],Active
same,Activity,Mus musculus [17],Non-Toxic
same,Activity,Mus musculus [18],Non-Toxic
same,Activity,Mus musculus [19],Non-Toxic
same,Activity,Mus musculus [20],Non-Toxic
same,tumor volume,Mus musculus [21],127 mm³
same,tumor volume,Mus musculus [22],231 mm³
same,tumor volume,Mus musculus [23],143 mm³
same,tumor volume,Mus musculus [24],334 mm³
